# From patent US20070117770A1, “Human ribosomal DNA (rDNA) and ribosomal RNA (rRNA) nucleic acids and uses thereof” (Cylene Pharmaceuticals, Inc., priority 2005, published 2007)
# Legend:
# [1] = molecular target: EGFR(L861Q)(h) (Homo sapiens, UniProt P00533, L861Q); experiment: Protein kinase inhibition assay; type: biochemical; settings: read-out: percent residual activity of EGFR(L861Q)(h)
# Experimental: (§1) Certain compounds were tested for activity in protein kinase inhibition assays. All substrates were dissolved and diluted to working stocks in de-ionized water, apart from histone H1 (10× working stock in 20 mM MOPS pH 7.0), PDKtide (10× working stock in 50 mM Tris pH 7.0) ATF2 (which is typically stored at a 20× working stock in 50 mM Tris pH 7.5, 150 mM NaCl, 0.1 mM EGTA, 0.03% Brij-35, 50% glycerol, 1 mM benzamidine, 0.2 mM PMSF and 0.1% R-mercaptoethanol), KKLNRTLSFAEPG (SEQ ID NO:203) and RRRLSFAEPG (SEQ ID NO:204) (50 mM HEPES pH 7.4) and GGEEEEYFELVKKKK (SEQ ID NO:205) (20 mM MOPS pH 7.0). All kinases were pre-diluted to a 10× working concentration prior to addition into the assay. The composition of the dilution buffer for each kinase is detailed below.
# (§2) In a final reaction volume of 25 μl, EGFR (L861 Q) (h) (5-10 mU) is incubated with 8 mM MOPS pH 7.0, 0.2 mM EDTA, 0.1 mg/ml poly(Glu, Tyr) 4:1, 10 mM MgAcetate and [gamma-33P-ATP] (specific activity approx. 500 cpm/pmol, concentration as required). The reaction is initiated by the addition of the MgATP mix. After incubation for 40 minutes at room temperature, the reaction is stopped by the addition of 5 μl of a 3% phosphoric acid solution. 10 μl of the reaction is then spotted onto a Filtermat A and washed three times for 5 minutes in 75 mM phosphoric acid and once in methanol prior to drying and scintillation counting.
# [2] = molecular target: T1, nucleolin/HP pre-rRNA region (Homo sapiens, UniProt P19338); experiment: EMSA, nucleolin/HP ligand interaction; type: binding; settings: nucleolin ~250 nM, 32P-labeled ligand 10 or 250 nM, 30 minutes (FIG. 1, FIG. 2)
# T1 construct: without the N-terminal acidic stretches domain
# T1 sequence (P19338 284-710 limits assumed): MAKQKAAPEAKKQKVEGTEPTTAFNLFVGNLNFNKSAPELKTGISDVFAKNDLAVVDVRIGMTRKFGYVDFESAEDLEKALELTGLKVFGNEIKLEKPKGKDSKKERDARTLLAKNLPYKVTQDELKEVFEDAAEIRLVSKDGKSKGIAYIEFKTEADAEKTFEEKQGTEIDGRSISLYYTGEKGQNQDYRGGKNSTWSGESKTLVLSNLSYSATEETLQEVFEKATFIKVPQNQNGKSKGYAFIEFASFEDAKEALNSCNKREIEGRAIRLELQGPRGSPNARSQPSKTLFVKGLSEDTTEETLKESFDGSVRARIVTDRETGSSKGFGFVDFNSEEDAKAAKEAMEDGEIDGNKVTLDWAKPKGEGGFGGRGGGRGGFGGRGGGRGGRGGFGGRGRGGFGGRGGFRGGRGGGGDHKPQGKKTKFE
# Experimental: The following assays assessed effects of compounds on interactions between nucleolin and nucleic acid ligands capable of forming quadruplex (QP) and hairpin (HP) secondary structures. Nucleic acid ligands tested were a cMyc QP DNA having nucleotide sequence 5′-[…]-3′ (SEQ ID NO: 176) and a HP pre-rRNA region to which nucleolin binds, having the sequence 5′-[…]-3′ (SEQ ID NO: 177). In the assays, recombinant nucleolin (˜250 nM), which was fused to maltose binding protein and had the sequence under accession number NM_005381 without the N-terminal acidic stretches domain, was incubated with each of the two ^32P-labeled nucleic acid ligands (10 or 250 nM). Nucleolin and the nucleic acid ligand were incubated in the presence or absence of a test compound of Formula A-1, B-1, C-6 or C-7 in an incubation buffer (12.5 mM Tris, pH 7.6, 60 mM KCl, 1 mM MgCl2, 0.1 mM EDTA, 1 mM DTT, 5% glycerol, 0.1 mg/ml BSA) for 30 minutes at room temperature. Structures for A-1 and B-1 are shown above and structures for C-6 and C-7 are shown hereafter: [drawing 17] The resulting complexes were separated on a 6% DNA retardation gel using 0.5× TBE with 20 mM KCl as a running buffer (i.e., electrophoresis mobility shift assay (EMSA)).
# [3] = molecular target: TBK1(h) (Homo sapiens, UniProt Q9UHD2); experiment: Protein kinase inhibition assay; type: biochemical; settings: read-out: percent residual activity of TBK1(h)
# Sequence of TBK1(h) (Q9UHD2 whole entry): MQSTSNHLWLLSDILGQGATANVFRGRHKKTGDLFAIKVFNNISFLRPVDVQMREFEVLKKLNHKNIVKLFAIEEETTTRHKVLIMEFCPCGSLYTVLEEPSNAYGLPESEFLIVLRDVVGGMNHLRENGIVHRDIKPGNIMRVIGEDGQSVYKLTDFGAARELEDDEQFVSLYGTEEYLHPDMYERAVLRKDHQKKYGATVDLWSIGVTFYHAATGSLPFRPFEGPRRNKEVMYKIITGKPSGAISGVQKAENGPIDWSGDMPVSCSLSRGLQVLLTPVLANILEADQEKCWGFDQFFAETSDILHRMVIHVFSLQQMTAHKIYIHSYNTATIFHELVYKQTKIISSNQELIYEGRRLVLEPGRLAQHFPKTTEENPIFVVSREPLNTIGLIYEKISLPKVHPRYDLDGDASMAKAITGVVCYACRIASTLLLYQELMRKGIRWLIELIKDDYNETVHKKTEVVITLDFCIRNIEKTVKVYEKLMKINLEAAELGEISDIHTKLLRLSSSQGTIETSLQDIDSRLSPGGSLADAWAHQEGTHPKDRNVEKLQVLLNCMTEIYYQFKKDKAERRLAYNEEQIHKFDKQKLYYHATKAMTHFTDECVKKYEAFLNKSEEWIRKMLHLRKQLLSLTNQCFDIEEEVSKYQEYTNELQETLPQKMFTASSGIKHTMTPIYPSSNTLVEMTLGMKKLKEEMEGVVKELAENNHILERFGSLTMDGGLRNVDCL
# Experimental: as §1
# as §2, with “TBK1” for “EGFR (L861 Q)”, “200 μM KRRRALS(p)VASLPGL (SEQ ID NO:214),” for “0.1 mg/ml poly(Glu, Tyr) 4:1,”, “P30 filtermat” for “Filtermat A”
# [4] = molecular target: PKG1β(h) (Homo sapiens, UniProt Q13976); experiment: Protein kinase inhibition assay; type: biochemical; settings: read-out: percent residual activity of PKG1β(h)
# Sequence of PKG1β(h) (Q13976 1-686 isoform Q13976-2): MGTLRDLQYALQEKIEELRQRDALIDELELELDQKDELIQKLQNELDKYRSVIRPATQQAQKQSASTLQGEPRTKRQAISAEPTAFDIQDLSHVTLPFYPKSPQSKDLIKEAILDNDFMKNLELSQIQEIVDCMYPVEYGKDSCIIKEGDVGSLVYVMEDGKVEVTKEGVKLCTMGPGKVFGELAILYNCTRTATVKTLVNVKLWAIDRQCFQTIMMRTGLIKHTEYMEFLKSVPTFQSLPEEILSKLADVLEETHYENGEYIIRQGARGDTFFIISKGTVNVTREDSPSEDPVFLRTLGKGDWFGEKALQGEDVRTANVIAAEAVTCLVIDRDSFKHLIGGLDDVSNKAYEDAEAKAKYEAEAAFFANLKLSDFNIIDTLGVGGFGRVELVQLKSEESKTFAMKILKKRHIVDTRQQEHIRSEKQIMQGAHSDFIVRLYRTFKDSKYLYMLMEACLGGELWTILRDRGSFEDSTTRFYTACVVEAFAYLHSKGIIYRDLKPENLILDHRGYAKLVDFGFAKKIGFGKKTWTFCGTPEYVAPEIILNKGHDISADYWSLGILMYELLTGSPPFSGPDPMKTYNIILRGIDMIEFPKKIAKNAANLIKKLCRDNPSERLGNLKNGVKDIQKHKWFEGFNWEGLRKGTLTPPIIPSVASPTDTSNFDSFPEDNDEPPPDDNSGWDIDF
# Experimental: as §1
# (§3) In a final reaction volume of 25 μl, PKG1β (h) (5-10 mU) is incubated with 8 mM MOPS pH 7.0, 0.2 mM EDTA, 10 μM cGMP, 200 μM RRRLSFAEPG (SEQ ID NO:223), 10 mM MgAcetate and [gamma-33P-ATP] (specific activity approx. 500 cpm/pmol, concentration as required). The reaction is initiated by the addition of the MgATP mix. After incubation for 40 minutes at room temperature, the reaction is stopped by the addition of 5 μl of a 3% phosphoric acid solution. […]
# [5] = molecular target: cSRC(h) (Homo sapiens, UniProt P12931); experiment: Protein kinase inhibition assay; type: biochemical; settings: read-out: percent residual activity of cSRC(h)
# Sequence of cSRC(h) (P12931 whole entry): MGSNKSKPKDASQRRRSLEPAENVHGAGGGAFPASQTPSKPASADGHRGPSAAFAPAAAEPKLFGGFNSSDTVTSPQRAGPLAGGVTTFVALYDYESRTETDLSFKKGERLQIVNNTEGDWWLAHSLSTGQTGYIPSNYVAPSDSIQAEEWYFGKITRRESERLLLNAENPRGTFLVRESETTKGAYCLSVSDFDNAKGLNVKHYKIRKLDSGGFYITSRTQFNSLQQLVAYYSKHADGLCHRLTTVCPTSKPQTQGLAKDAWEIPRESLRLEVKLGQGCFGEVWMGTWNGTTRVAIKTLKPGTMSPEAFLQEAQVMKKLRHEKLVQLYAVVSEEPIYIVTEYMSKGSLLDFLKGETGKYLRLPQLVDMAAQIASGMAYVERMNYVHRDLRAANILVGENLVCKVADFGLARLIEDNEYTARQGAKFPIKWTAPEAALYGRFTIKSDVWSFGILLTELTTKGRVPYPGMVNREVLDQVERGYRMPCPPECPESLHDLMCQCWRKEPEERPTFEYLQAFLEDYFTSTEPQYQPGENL
# Experimental: as §1
# as §3, with “μl, cSRC” for “μl, PKG1β”, “EDTA, 250” for “EDTA, 10”, “μM KVEKIGEGTYGVVYK” for “μM cGMP, 200 μM RRRLSFAEPG”, “ID NO:211) (Cdc2 peptide),” for “ID NO:223),”, “and [y-33P-ATP]” for “and [gamma-33P-ATP]”
# Sequence of EGFR(L861Q)(h) (P00533 25-1210 L861Q): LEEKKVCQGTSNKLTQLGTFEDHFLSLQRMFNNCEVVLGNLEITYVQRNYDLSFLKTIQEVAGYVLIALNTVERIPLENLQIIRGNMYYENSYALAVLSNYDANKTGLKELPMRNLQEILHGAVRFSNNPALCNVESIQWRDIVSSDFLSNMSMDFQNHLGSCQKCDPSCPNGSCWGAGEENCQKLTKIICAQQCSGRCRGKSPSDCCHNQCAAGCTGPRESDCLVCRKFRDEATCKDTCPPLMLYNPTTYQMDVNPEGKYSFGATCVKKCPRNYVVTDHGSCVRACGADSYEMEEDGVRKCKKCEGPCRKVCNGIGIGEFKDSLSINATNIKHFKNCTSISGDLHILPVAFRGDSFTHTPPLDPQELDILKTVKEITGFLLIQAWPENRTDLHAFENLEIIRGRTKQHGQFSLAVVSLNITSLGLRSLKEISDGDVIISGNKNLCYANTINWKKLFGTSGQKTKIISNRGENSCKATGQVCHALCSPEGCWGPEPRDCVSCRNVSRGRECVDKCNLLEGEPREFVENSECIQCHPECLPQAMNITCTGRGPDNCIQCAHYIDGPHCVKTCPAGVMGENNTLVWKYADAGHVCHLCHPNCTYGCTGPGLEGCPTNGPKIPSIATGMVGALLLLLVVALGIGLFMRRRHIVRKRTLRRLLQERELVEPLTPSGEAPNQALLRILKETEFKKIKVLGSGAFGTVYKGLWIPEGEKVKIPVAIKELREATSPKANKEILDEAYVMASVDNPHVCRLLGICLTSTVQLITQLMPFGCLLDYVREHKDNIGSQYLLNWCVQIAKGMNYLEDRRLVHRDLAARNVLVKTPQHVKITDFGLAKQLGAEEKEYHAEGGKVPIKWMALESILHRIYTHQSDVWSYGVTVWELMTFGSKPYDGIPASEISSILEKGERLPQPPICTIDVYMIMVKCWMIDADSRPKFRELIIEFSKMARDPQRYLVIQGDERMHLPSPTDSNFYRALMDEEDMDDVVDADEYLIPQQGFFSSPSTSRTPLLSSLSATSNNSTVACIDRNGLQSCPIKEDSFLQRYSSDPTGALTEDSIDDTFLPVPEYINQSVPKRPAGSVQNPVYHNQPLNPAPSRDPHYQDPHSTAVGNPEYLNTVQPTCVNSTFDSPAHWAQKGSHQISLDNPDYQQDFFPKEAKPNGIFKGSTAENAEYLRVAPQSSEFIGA
SMILES,remaining activity at 2.5 µM [1],interference with the nucleolin/HP ligand interaction [2],remaining activity at 2.5 µM [3],remaining activity at 2.5 µM [4],remaining activity at 2.5 µM [5]
CN1CCCC1CCNC(=O)c1cn2c3c(c(N4CCC(c5cnccn5)C4)c(F)cc3c1=O)Oc1cc3ccccc3cc1-2 (stereo not shown) [Compound A-1],94%,did not significantly interfere with the nucleolin/HP ligand interaction,71%,48%,33%
CC(=O)N1CCN(c2ccc3c(=O)c(C(=O)NCCN4CCCC4)c4n(C)c5ccccc5n4c3n2)CC1 [Compound B-1],109%,did not significantly interfere with the nucleolin/HP interaction,114%,107%,137%
